In patent US12509414B2, “Carbon quantum dot, a composition thereof and a method for treating infection by using same” (NATIONAL TAIWAN OCEAN UNIVERSITY, priority 2019, dated 2025):

Test system: E. coli (Escherichia coli)
Test: Antibacterial test, MIC by standard dilution method (O.D. 600)
Type: cell-based
Conditions: FIG. 4
Method: The minimum inhibitory concentration (MIC) value of a carbon quantum dot was determined by a standard dilution method in a variety of tested bacterial strains, including E. coli (Escherichia coli), P. aeruginosa (Pseudomonas aeruginosa), S. enteritidis (Salmonella enterica), S. aureus (Staphylococcus aureus), MRSA (Methicillin-resistant Staphylococcus aureus, a multi-drug resistant Staphylococcus), S. iniae (Streptococcus iniae), and C. albicans (Candida albicans).
A single colony of each strain was removed from the culture medium, and inoculated in each suitable growth medium (10 mL). The cultured bacteria were grown at 37° C. with shaking (200 rpm), until the absorbance at 600 nm (O.D. 600) reaches 1.0 (optical path length: 1.0 cm). Each cell mixture was centrifuged at 1.0 mL (RCF 3,000×g, […], 25° C.), and washed twice with 5 mM sodium phosphate buffer (pH 7.4) before further use. The carbon quantum dots were mixed with a 10^5 CFU/mL bacterial solution, and the final concentration of the reaction bacterial solution was 10^4 CFU/mL. After reaction for 3 hours, each suitable growth medium was added. After 12 hours of incubation in the incubator at the culture temperature of each strain, the absorbance at 600 nm (O.D. 600) was measured.

## NCCCCCCN [C, 1,6-diamino-hexane]
  antibacterial ability (comparison in words): worst antibacterial effect
